Where two headings read alike, the source gives them in different places.
How the values were obtained:
[1] = system: influenza A virus (strain A/Puerto Rico/8/1934/H1N1); assay: Viral load in lungs of PR8-infected mice by plaque assay on MDCK cells; type: in vivo, C57BL/6J mice; conditions: for Average viral load (pfu): substances in drinking water (experimental group also intraperitoneal injection)
[2] = system: influenza A virus (strain A/Hong Kong/X31/68 H3N2); conditions: lungs of infected mice, 1-MT in drinking water; cited from earlier work
[3] = system: influenza A virus (strain A/Kumamoto/Y5/67 H2N2); conditions: mouse, in vivo; cited from earlier work
[4] = system: influenza A virus (strain A/Aichi/2/1968 H3N2); conditions: 0.7 M arginine-containing solution, cited from earlier work
[5] = mice lungs, seventh day after intranasal inoculation with 200 pfu PR8 virus
[6] = mice lungs, seventh day after virus inoculation

Cn1cc(C[C@H](N)C(=O)O)c2ccccc21 [Inhibitor group 3, 1-methyl-tryptophan]
Average viral load (pfu) [1, 5]: 4.37 × 10^3 pfu | average viral load compared with the control group [1, 6]: significantly lower | number of activated and functional CD4+ T-cells, influenza-specific CD8+ T-cells and effector memory cells [2]: increased significantly

N=C(NO)NCC[C@H](N)C(=O)O [Inhibitor group 2, N^ω-hydroxy-nor-L-arginine acetate]
Average viral load (pfu) [1, 5]: 2.47 × 10^3 pfu | average viral load compared with the control group [1, 6]: significantly lower

CN=C(N)NCCC[C@H](N)C(=O)O.O=C(O)CC(O)(CC(=O)O)C(=O)O [Inhibitor group 1, L-NG-monomethyl arginine citrate]
Average viral load (pfu) ([1]; […]): 4.30 × 10^3 pfu | average viral load compared with the control group ([1]; mouse, in vivo): significantly lower | production of NO-hemoglobin in the lungs [3]: inhibit | survival rate [3]: effectively increasing

N=C(N)NCCC[C@H](N)C(=O)O [arginine]
virus inactivation effect ([4]; pH 4.5, on ice for 30 to 60 minutes): most potent virus inactivation effect | virus inactivation effect ([4]; pH 5.5, on ice for 30 to 60 minutes): no virus inactivation effect was detected

Source: patent US20190275002A1 (priority 2018, published 2019)
